Laboratory results taken from ChEMBL document CHEMBL3885861, “Open TG-GATES”.

Organism: Rattus norvegicus
Test: Open TG-GATES - Regimen: Daily Repeat
Assay type: toxicity, organism-based, Sprague-Dawley
Set-up: regimen Daily Repeat, gender Male, age 6 weeks
Conditions: in vivo, po, route gavage; for APTT / Bas / Eos / Fbg / Hb / Ht / Lym / MCH / MCHC / MCV / Mono / Neu / PT / Plat / RBC / Ret / WBC: tissue Blood; for KIDNEY_L / KIDNEY_R / KIDNEY_TOTAL: tissue Kidney; for LIVER: tissue Liver; for ALP / ALT / AST / BUN / CRE / DBIL / GLC / K / Na / PL / RALB / TBIL / TC / TG / TP / gamma-GTP: tissue Plasma
[1] = 75 mg/kg, 72 h, dose level Middle, time 3 day
[2] = 75 mg/kg, […], dose level Middle, time 7 day
[3] = 75 mg/kg, […], dose level Middle, time 14 day
[4] = 75 mg/kg, […], dose level Middle, time 28 day
[5] = 250 mg/kg, 72 h, dose level High, time 3 day
[6] = 250 mg/kg, […], dose level High, time 7 day
[7] = 250 mg/kg, […], dose level High, time 14 day
[8] = 250 mg/kg, […], dose level High, time 28 day

CN1C(=O)CN=C(c2ccccc2)c2cc(Cl)ccc21 [DIAZEPAM]
TERMINAL_BW [1]: 244.2 g | APTT [1]: 16.3 s | Bas [1]: 0% | Eos [1]: 1.2% | Fbg [1]: 235.6 mg/dL | Hb [1]: 13.7 g/dL | Ht [1]: 41.3% | Lym [1]: 77.4% | MCH [1]: 21.3 pg | MCHC [1]: 33.3% | MCV [1]: 64.1 fL | Mono [1]: 6% | Neu [1]: 15.8% | PT [1]: 11.6 s | Plat [1]: 112.9 x10_4/uL | RBC [1]: 644 x10_4/ul | Ret [1]: 6.3% | WBC [1]: 129.7 x10_2/uL | KIDNEY_L [1]: 1.1 g | KIDNEY_R [1]: 1 g | KIDNEY_TOTAL [1]: 2.1 g | LIVER [1]: 12.5 g | ALP [1]: 782.4 IU/L | ALT [1]: 33.2 IU/L | AST [1]: 62.6 IU/L | BUN [1]: 19 mg/dL | CRE [1]: 0.6 mg/dL | DBIL [1]: 0.008 mg/dL | GLC [1]: 194.2 mg/dL | K [1]: 5 meq/L | Na [1]: 138.7 meq/L | PL [1]: 164.2 mg/dL | RALB [1]: 4.1 g/dL | TBIL [1]: 0.4 mg/dL | TC [1]: 90.8 mg/dL | TG [1]: 99.2 mg/dL | TP [1]: 6 g/dL | gamma-GTP [1]: 0.8 IU/L | TERMINAL_BW [2]: 272.1 g | TERMINAL_BW [3]: 328 g | TERMINAL_BW [4]: 403 g | APTT [2]: 16.8 s | Bas [2]: 0% | Eos [2]: 1% | Fbg [2]: 230.6 mg/dL | Hb [2]: 14.3 g/dL | Ht [2]: 43.5% | Lym [2]: 77.8% | MCH [2]: 21 pg | MCHC [2]: 32.9% | MCV [2]: 63.8 fL | Mono [2]: 5.8% | Neu [2]: 15.4% | PT [2]: 11.4 s | Plat [2]: 107.7 x10_4/uL | RBC [2]: 682.8 x10_4/ul | Ret [2]: 5.5% | WBC [2]: 100.7 x10_2/uL | APTT [3]: 16.7 s | Bas [3]: 0% | Eos [3]: 0.6% | Fbg [3]: 228.6 mg/dL | Hb [3]: 14.6 g/dL | Ht [3]: 43.7% | Lym [3]: 82.6% | MCH [3]: 21.1 pg | MCHC [3]: 33.4% | MCV [3]: 63 fL | Mono [3]: 3.8% | Neu [3]: 12.8% | PT [3]: 11.8 s | Plat [3]: 111.6 x10_4/uL | RBC [3]: 694.4 x10_4/ul | Ret [3]: 4.9% | WBC [3]: 142.4 x10_2/uL | APTT [4]: 17.8 s | Bas [4]: 0% | Eos [4]: 1.2% | Fbg [4]: 236.6 mg/dL | Hb [4]: 15.2 g/dL | Ht [4]: 45.7% | Lym [4]: 80.4% | MCH [4]: 19 pg | MCHC [4]: 33.3% | MCV [4]: 57 fL | Mono [4]: 3.6% | Neu [4]: 14.4% | PT [4]: 12 s | Plat [4]: 106.3 x10_4/uL | RBC [4]: 802.8 x10_4/ul | Ret [4]: 2.6% | WBC [4]: 121 x10_2/uL | KIDNEY_L [2]: 1.2 g | KIDNEY_R [2]: 1.2 g | KIDNEY_TOTAL [2]: 2.3 g | KIDNEY_L [3]: 1.3 g | KIDNEY_R [3]: 1.4 g | KIDNEY_TOTAL [3]: 2.7 g | KIDNEY_L [4]: 1.4 g | KIDNEY_R [4]: 1.5 g | KIDNEY_TOTAL [4]: 2.9 g | LIVER [2]: 13.9 g | LIVER [3]: 15.5 g | LIVER [4]: 17.7 g | ALP [2]: 755 IU/L | ALT [2]: 36.8 IU/L | AST [2]: 57.8 IU/L | BUN [2]: 16.4 mg/dL | CRE [2]: 0.6 mg/dL | DBIL [2]: 0.01 mg/dL | GLC [2]: 199 mg/dL | K [2]: 4.5 meq/L | Na [2]: 138.9 meq/L | PL [2]: 155.2 mg/dL | RALB [2]: 4.2 g/dL | TBIL [2]: 0.3 mg/dL | TC [2]: 81.8 mg/dL | TG [2]: 86.4 mg/dL | TP [2]: 6.2 g/dL | gamma-GTP [2]: 1.2 IU/L | ALP [3]: 627.6 IU/L | ALT [3]: 32.8 IU/L | AST [3]: 59.2 IU/L | BUN [3]: 16 mg/dL | CRE [3]: 0.6 mg/dL | DBIL [3]: 0.006 mg/dL | GLC [3]: 194.8 mg/dL | K [3]: 4.4 meq/L | Na [3]: 141.1 meq/L | PL [3]: 144.8 mg/dL | RALB [3]: 4 g/dL | TBIL [3]: 0.4 mg/dL | TC [3]: 74.6 mg/dL | TG [3]: 87.4 mg/dL | TP [3]: 6.1 g/dL | gamma-GTP [3]: 1 IU/L | ALP [4]: 410.4 IU/L | ALT [4]: 32.2 IU/L | AST [4]: 56.8 IU/L | BUN [4]: 20.2 mg/dL | CRE [4]: 0.6 mg/dL | DBIL [4]: 0.012 mg/dL | GLC [4]: 192.4 mg/dL | K [4]: 4.2 meq/L | Na [4]: 139.9 meq/L | PL [4]: 151.4 mg/dL | RALB [4]: 4.1 g/dL | TBIL [4]: 0.3 mg/dL | TC [4]: 74 mg/dL | TG [4]: 136 mg/dL | TP [4]: 6.7 g/dL | gamma-GTP [4]: 0.4 IU/L | TERMINAL_BW [5]: 237.9 g | APTT [5]: 16.2 s | Bas [5]: 0% | Eos [5]: 1% | Fbg [5]: 230.6 mg/dL | Hb [5]: 14 g/dL | Ht [5]: 42% | Lym [5]: 78.8% | MCH [5]: 21.5 pg | MCHC [5]: 33.3% | MCV [5]: 64.8 fL | Mono [5]: 6.2% | Neu [5]: 14.2% | PT [5]: 11.6 s | Plat [5]: 103.3 x10_4/uL | RBC [5]: 648.4 x10_4/ul | Ret [5]: 5.6% | WBC [5]: 126.1 x10_2/uL | KIDNEY_L [5]: 1.1 g | KIDNEY_R [5]: 1.1 g | KIDNEY_TOTAL [5]: 2.1 g | LIVER [5]: 12.6 g | ALP [5]: 891.8 IU/L | ALT [5]: 47.4 IU/L | AST [5]: 68.8 IU/L | BUN [5]: 17.2 mg/dL | CRE [5]: 0.6 mg/dL | DBIL [5]: 0.024 mg/dL | GLC [5]: 201.4 mg/dL | K [5]: 4.8 meq/L | Na [5]: 138.9 meq/L | PL [5]: 173.6 mg/dL | RALB [5]: 3.8 g/dL | TBIL [5]: 0.3 mg/dL | TC [5]: 113.4 mg/dL | TG [5]: 59.8 mg/dL | TP [5]: 5.9 g/dL | gamma-GTP [5]: 1.8 IU/L | TERMINAL_BW [6]: 268.4 g | TERMINAL_BW [7]: 309.4 g | TERMINAL_BW [8]: 402.6 g | APTT [6]: 17.2 s | Bas [6]: 0% | Eos [6]: 1.2% | Fbg [6]: 211.8 mg/dL | Hb [6]: 13.7 g/dL | Ht [6]: 40.8% | Lym [6]: 76.6% | MCH [6]: 21.6 pg | MCHC [6]: 33.5% | MCV [6]: 64.6 fL | Mono [6]: 6% | Neu [6]: 16.6% | PT [6]: 11.6 s | Plat [6]: 128 x10_4/uL | RBC [6]: 633.8 x10_4/ul | Ret [6]: 5.9% | WBC [6]: 144 x10_2/uL | APTT [7]: 18.5 s | Bas [7]: 0% | Eos [7]: 0.8% | Fbg [7]: 245.8 mg/dL | Hb [7]: 14.6 g/dL | Ht [7]: 43.8% | Lym [7]: 79% | MCH [7]: 20.6 pg | MCHC [7]: 33.4% | MCV [7]: 61.8 fL | Mono [7]: 4.6% | Neu [7]: 15.6% | PT [7]: 11.9 s | Plat [7]: 106.7 x10_4/uL | RBC [7]: 709.4 x10_4/ul | Ret [7]: 4.3% | WBC [7]: 144 x10_2/uL | APTT [8]: 20.2 s | Bas [8]: 0% | Eos [8]: 1% | Fbg [8]: 252 mg/dL | Hb [8]: 15.4 g/dL | Ht [8]: 45.8% | Lym [8]: 81.4% | MCH [8]: 19.7 pg | MCHC [8]: 33.6% | MCV [8]: 58.5 fL | Mono [8]: 4.2% | Neu [8]: 13.4% | PT [8]: 12.2 s | Plat [8]: 109.3 x10_4/uL | RBC [8]: 782.2 x10_4/ul | Ret [8]: 3% | WBC [8]: 179.4 x10_2/uL | KIDNEY_L [6]: 1.2 g | KIDNEY_R [6]: 1.2 g | KIDNEY_TOTAL [6]: 2.4 g | KIDNEY_L [7]: 1.3 g | KIDNEY_R [7]: 1.4 g | KIDNEY_TOTAL [7]: 2.7 g | KIDNEY_L [8]: 1.6 g | KIDNEY_R [8]: 1.6 g | KIDNEY_TOTAL [8]: 3.2 g | LIVER [6]: 14.5 g | LIVER [7]: 16.6 g | LIVER [8]: 19.7 g | ALP [6]: 732.8 IU/L | ALT [6]: 35.4 IU/L | AST [6]: 64.8 IU/L | BUN [6]: 17.2 mg/dL | CRE [6]: 0.6 mg/dL | DBIL [6]: 0.008 mg/dL | GLC [6]: 194.4 mg/dL | K [6]: 4.5 meq/L | Na [6]: 139.1 meq/L | PL [6]: 133.4 mg/dL | RALB [6]: 3.9 g/dL | TBIL [6]: 0.3 mg/dL | TC [6]: 78 mg/dL | TG [6]: 35.4 mg/dL | TP [6]: 6.1 g/dL | gamma-GTP [6]: 1 IU/L | ALP [7]: 735.2 IU/L | ALT [7]: 37.8 IU/L | AST [7]: 54.2 IU/L | BUN [7]: 17.6 mg/dL | CRE [7]: 0.6 mg/dL | DBIL [7]: 0.01 mg/dL | GLC [7]: 193.6 mg/dL | K [7]: 4.6 meq/L | Na [7]: 142 meq/L | PL [7]: 145.4 mg/dL | RALB [7]: 4.1 g/dL | TBIL [7]: 0.2 mg/dL | TC [7]: 78.8 mg/dL | TG [7]: 48 mg/dL | TP [7]: 6.4 g/dL | gamma-GTP [7]: 1.6 IU/L | ALP [8]: 448.2 IU/L | ALT [8]: 35 IU/L | AST [8]: 53.6 IU/L | BUN [8]: 19 mg/dL | CRE [8]: 0.6 mg/dL | DBIL [8]: 0.012 mg/dL | GLC [8]: 195.4 mg/dL | K [8]: 4.1 meq/L | Na [8]: 140.5 meq/L | PL [8]: 135.4 mg/dL | RALB [8]: 4.3 g/dL | TBIL [8]: 0.3 mg/dL | TC [8]: 73.4 mg/dL | TG [8]: 48 mg/dL | TP [8]: 6.8 g/dL | gamma-GTP [8]: 0.8 IU/L
